We go through two molecules from ChEMBL document CHEMBL5528002, “Identification of selective 5-LOX and FLAP inhibitors as novel anti-inflammatory agents by ligand-based virtual screening” (Eur J Med Chem, 2024).

Each structure is given as a SMILES string. Calls of active or inactive are those of the source. The rule behind the calls is not given here. Where only a bound is given, the exact number is not on record here.

For orientation: inhibition means the change of the read-out against control, counted positive when it falls.

Experiment [1] concerns the target T1, Polyunsaturated fatty acid 5-lipoxygenase (Homo sapiens) (UniProt P09917).
T1 sequence (whole entry): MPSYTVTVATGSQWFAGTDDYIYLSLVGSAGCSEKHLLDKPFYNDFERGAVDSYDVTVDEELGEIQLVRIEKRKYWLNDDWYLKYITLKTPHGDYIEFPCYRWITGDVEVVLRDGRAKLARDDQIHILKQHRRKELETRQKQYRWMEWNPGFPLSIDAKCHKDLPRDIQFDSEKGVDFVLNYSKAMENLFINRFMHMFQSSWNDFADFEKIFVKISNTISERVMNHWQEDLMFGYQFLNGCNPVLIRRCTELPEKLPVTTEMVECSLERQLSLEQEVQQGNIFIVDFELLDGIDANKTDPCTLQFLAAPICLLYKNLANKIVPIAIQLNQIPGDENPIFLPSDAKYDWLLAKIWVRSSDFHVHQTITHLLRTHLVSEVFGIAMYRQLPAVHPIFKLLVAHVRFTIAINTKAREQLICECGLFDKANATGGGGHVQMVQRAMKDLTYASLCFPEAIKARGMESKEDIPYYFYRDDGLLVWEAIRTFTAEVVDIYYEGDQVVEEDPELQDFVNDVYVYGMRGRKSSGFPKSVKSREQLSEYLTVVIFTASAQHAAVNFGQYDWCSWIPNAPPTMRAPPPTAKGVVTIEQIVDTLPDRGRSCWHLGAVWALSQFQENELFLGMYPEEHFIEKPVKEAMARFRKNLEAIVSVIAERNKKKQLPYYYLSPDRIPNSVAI
Kind of experiment: Inhibition of 5-LOX in human Neutrophil assessed as enzyme remaining activity at 10 uM preincubated with compound for 15 mins followed by A23187 addition measured after 10 mins by RP-HPLC analysis relative to control. Conditions: time 25.0 min. Format: cell-based.

The test system of experiment [2] is Macrophage cell line. The experiment is described as follows: Effect on lipid mediator formation in human M1-like phenotype MDM cells by measuring PGE2 formation at 10 uM pre-incubated for 15 mins followed by SACM stimulation and measured after 90 mins by UPLC-MS/MS analysis (reference value: 1789 +/- 871 pg/ml). Type of experiment: functional. Conditions: time 105 min, 1.75 h.

Experiment [3] deals with Macrophage cell line. Kind of experiment: Effect on lipid mediator formation in human M1-like phenotype MDM cells by measuring 14-HDHA formation at 10 uM pre-incubated for 15 mins followed by SACM stimulation and measured after 90 mins by UPLC-MS/MS analysis (reference value: 100 +/- 21 pg/ml). Type of experiment: functional. The settings on record: time 105 min, 1.75 h.

For experiment [4], the system named is Macrophage cell line. The experiment is described as follows: Effect on lipid mediator formation in human M1-like phenotype MDM cells by measuring DHA formation at 10 uM pre-incubated for 15 mins followed by SACM stimulation and measured after 90 mins by UPLC-MS/MS analysis (reference value: 66334 +/- 8894 pg/ml). Type of experiment: functional. The settings on record: time 105 min, 1.75 h.

Experiment [5] concerns Macrophage cell line. The experiment is described as follows: Effect on lipid mediator formation in human M1-like phenotype MDM cells by measuring 5-HEPE formation at 10 uM pre-incubated for 15 mins followed by SACM stimulation and measured after 90 mins by UPLC-MS/MS analysis relative to control. Type of experiment: functional. The settings on record: time 105 min, 1.75 h.

In experiment [6] the test system is Macrophage cell line. The experiment is described as follows: Effect on lipid mediator formation in human M1-like phenotype MDM cells by measuring 12-HEPE formation at 10 uM pre-incubated for 15 mins followed by SACM stimulation and measured after 90 mins by UPLC-MS/MS analysis relative to control. The settings on record: time 105 min, 1.75 h. Format: functional.

Experiment [7] relates to Macrophage cell line. Kind of experiment: Effect on lipid mediator formation in human M2-like phenotype MDM cells by measuring 5-HETE formation at 10 uM pre-incubated for 15 mins followed by SACM stimulation and measured after 90 mins by UPLC-MS/MS analysis (reference value: 4812 +/- 561 pg/ml). Type of experiment: functional. The settings on record: time 105 min, 1.75 h.

In experiment [8] the test system is Macrophage cell line. The experiment is described as follows: Effect on lipid mediator formation in human M2-like phenotype MDM cells by measuring 5S,6R-diHETE formation at 10 uM pre-incubated for 15 mins followed by SACM stimulation and measured after 90 mins by UPLC-MS/MS analysis (reference value: 206 +/- 47 pg/ml). Format: functional. Conditions: time 105 min, 1.75 h.

Experiment [9] concerns Macrophage cell line. Kind of experiment: Effect on lipid mediator formation in human M2-like phenotype MDM cells by measuring PGD2 formation at 10 uM pre-incubated for 15 mins followed by SACM stimulation and measured after 90 mins by UPLC-MS/MS analysis (reference value: 48 +/- 13 pg/ml). Type of experiment: functional. Conditions: time 105 min, 1.75 h.
Experiment [10] relates to Macrophage cell line. Kind of experiment: Effect on lipid mediator formation in human M2-like phenotype MDM cells by measuring TXB2 formation at 10 uM pre-incubated for 15 mins followed by SACM stimulation and measured after 90 mins by UPLC-MS/MS analysis (reference value: 4488 +/- 452 pg/ml). The settings on record: time 105 min, 1.75 h. Format: functional.
The test system of experiment [11] is Macrophage cell line. Kind of experiment: Effect on lipid mediator formation in human M2-like phenotype MDM cells by measuring EPA formation at 10 uM pre-incubated for 15 mins followed by SACM stimulation and measured after 90 mins by UPLC-MS/MS analysis (reference value: 23813 +/- 1138 pg/ml). Type of experiment: functional. The settings on record: time 105 min, 1.75 h.

Experiment [12] deals with Macrophage cell line. Kind of experiment: Effect on lipid mediator formation in human M2-like phenotype MDM cells by measuring PGD2 formation at 10 uM pre-incubated for 15 mins followed by SACM stimulation and measured after 90 mins by UPLC-MS/MS analysis relative to control. Format: functional. The settings on record: time 105 min, 1.75 h.
For experiment [13], the system named is Macrophage cell line. Kind of experiment: Effect on lipid mediator formation in human M2-like phenotype MDM cells by measuring 14-HDHA formation at 10 uM pre-incubated for 15 mins followed by SACM stimulation and measured after 90 mins by UPLC-MS/MS analysis relative to control. Format: functional. Conditions: time 105 min, 1.75 h.
The test system of experiment [14] is Macrophage cell line. Kind of experiment: Effect on lipid mediator formation in human M2-like phenotype MDM cells by measuring RvD1 formation at 10 uM pre-incubated for 15 mins followed by SACM stimulation and measured after 90 mins by UPLC-MS/MS analysis relative to control. Type of experiment: functional. Conditions: time 105 min, 1.75 h.
Experiment [15] has as its target T2, Bifunctional epoxide hydrolase 2 (Homo sapiens) (UniProt P34913).
T2 sequence (whole entry): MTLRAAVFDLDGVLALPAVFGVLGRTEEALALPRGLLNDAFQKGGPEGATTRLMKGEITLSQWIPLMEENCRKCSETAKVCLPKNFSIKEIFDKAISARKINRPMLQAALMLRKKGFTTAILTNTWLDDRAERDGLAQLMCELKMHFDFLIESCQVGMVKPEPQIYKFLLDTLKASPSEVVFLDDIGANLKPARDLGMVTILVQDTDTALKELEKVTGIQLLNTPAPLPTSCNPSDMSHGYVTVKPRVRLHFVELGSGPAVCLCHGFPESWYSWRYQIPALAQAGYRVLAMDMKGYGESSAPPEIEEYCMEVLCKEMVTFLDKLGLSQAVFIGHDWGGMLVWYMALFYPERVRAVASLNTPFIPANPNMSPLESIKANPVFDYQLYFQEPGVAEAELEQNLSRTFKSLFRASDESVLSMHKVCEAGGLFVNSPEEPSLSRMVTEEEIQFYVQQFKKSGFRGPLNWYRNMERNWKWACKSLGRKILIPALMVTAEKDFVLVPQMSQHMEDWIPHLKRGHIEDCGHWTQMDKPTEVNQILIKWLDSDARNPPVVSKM
Kind of experiment: Inhibition of human sEH at 10 uM relative to control.

A further experiment deals with Neutrophil. The experiment is described as follows: Inhibition of ROS production in PMA-induced human Neutrophil cells at 1 uM incubated for 10 mins by DCFH-DA dye based fluorometric assay. Type of experiment: functional, cell-based.

`Oc1ccc(CCC2CCC(c3ccc(O)cc3)CO2)cc1` (configuration not stated): the Activity was found to be 4.2% in experiment [1]; 1236 pg/mL with Macrophage cell line [2]; 88 pg/mL in the experiment with Macrophage cell line [3]; 62371 pg/mL in the experiment on Macrophage cell line [4]; 18% in the experiment on Macrophage cell line [5]; 90% in the experiment with Macrophage cell line [6]. Also, the Activity amounted to 1181 pg/mL with Macrophage cell line [7]; 14 pg/mL with Macrophage cell line [8]; 62 pg/mL in the experiment on Macrophage cell line [9]; 3850 pg/mL in the experiment on Macrophage cell line [10]; 28427 pg/mL in the experiment with Macrophage cell line [11]; 131% in the experiment with Macrophage cell line [12]. For the same molecule, the values for the Activity in the experiment with Macrophage cell line [13] and in the experiment with Macrophage cell line [14] were 139% and 82%, respectively. Also, the inhibition in experiment [15] was greater than 35%. Besides, in the experiment with Neutrophil, the inhibition result is “inactive”.
In the case of `COc1ccc(C2=C/C(=C/c3ccc(O)cc3O)C(=O)O2)cc1`, the Activity in experiment [1] is 19.6%; with Macrophage cell line [2], 1656 pg/mL; in the experiment with Macrophage cell line [3], 93 pg/mL; with Macrophage cell line [4] it was 71742 pg/mL; in the experiment on Macrophage cell line [5] it was 11%; in the experiment with Macrophage cell line [6], 92%. Also, the Activity in the experiment with Macrophage cell line [7] was found to be 450 pg/mL; with Macrophage cell line [8], 8 pg/mL; in the experiment with Macrophage cell line [9] it was 96 pg/mL; with Macrophage cell line [10] it was 3416 pg/mL; with Macrophage cell line [11] it was 24465 pg/mL; in the experiment with Macrophage cell line [12], 201%. For the same molecule, the Activity turned out to be 179% with Macrophage cell line [13] and 114% in the experiment with Macrophage cell line [14]. Further, the inhibition in experiment [15] is greater than 35%. Besides, in the experiment with Neutrophil, the inhibition entry is “inactive”.
